The source of these data is PubChem BioAssay AID652053 (Broad Institute, 2013).

The assay deals with Huh7 psiCHECK-miR122 Renilla luciferase reporter, 48 h. Nature of the assay: suppression of miR-122 activity, Renilla luciferase sensor – cell-based, Huh7 psiCHECK-miR122, cherry-pick, dose response (AID 652053).

Some results are limits rather than exact numbers.

Regarding `CCCCOC(=O)NC1CCc2cc(OC)c(OC)c(OC)c2-c2ccc(SC)c(=O)cc21` (centres undefined), the AC40 was 0.863 µM.
On to `C[C@H](CO)N1C[C@H](C)[C@@H](CN(C)Cc2ccc3c(c2)OCO3)Oc2c(NC(=O)C3CCCCC3)cccc2C1=O`, for which the AC40 is 5.43 µM.
For the compound `CS(=O)(=O)N(CC(=O)Nc1ccc(Cl)c(Cl)c1)C1CCCCC1`, the AC40 is 13.5 µM.
In the case of `O=C(c1ccccc1)C(O)(Cc1ccccc1)c1ccccc1` (centres undefined), the AC40 was 8.14 µM.
As for `CC(C)CNS(=O)(=O)c1cc2c3c(c1)CCC(=O)N3CCC2`, the figure is 9.58 µM; as for `COc1ccc(C)cc1S(=O)(=O)NC1CCCCCC1`, 2.03 µM.
As for `COc1ccc(-c2cc(C(=O)N(C)Cc3ccccc3F)c3ccccc3n2)cc1OC`, the AC40 is 14.7 µM.
With `Cc1cc(Cl)c(S(=O)(=O)Nc2ccc3c(c2)OCO3)cc1OCC(=O)NC1CCCCC1`, the AC40 was 5.8 µM.
For `Cc1cc(C(O)c2ncc(-c3ccccc3)[nH]2)ccc1F` (centres undefined), the AC40 is 19.2 µM.
In the case of `Cc1sc2ncn(CC(=O)N(CC(=O)NC3CCCC3)Cc3cccs3)c(=O)c2c1C`, the AC40 is 20 µM.
For `C[C@@H]1CN([C@@H](C)CO)C(=O)Cc2cc(NC(=O)Nc3ccc(C(F)(F)F)cc3)ccc2O[C@@H]1CN(C)C(=O)Nc1cccc2ccccc12`, the AC40 was 4.39 µM.
Consider `CCc1cccc(NS(=O)(=O)c2ccc3c(c2)NC(=O)CO3)c1`, for which the AC40 is 7 µM.
`CC(=O)Nc1ccc(C(=O)Nc2ccc(S(=O)(=O)NCC3CCCO3)cc2)cc1` (centres undefined): the AC40 is 2.69 µM.
For `Cc1ccc(S(=O)(=O)c2cccc(S(=O)(=O)N3CCCC3)c2)cc1S(=O)(=O)N1CCCC1` the value was 9.91 µM; for `COc1cc(NS(=O)(=O)c2cc3c(cc2C)NC(=O)CO3)cc(OC)c1`, 4.02 µM; for `COc1ccc(S(=O)(=O)Nc2ccc(CC#N)cc2)cc1`, 11.9 µM.
As for `COc1ccccc1NS(=O)(=O)c1cccc(NC(=O)c2[nH]c(C)c(C(C)=O)c2C)c1`, the figure is 7.17 µM.
Turning to `COc1cc(S(=O)(=O)N(CCc2ccccc2)Cc2cccs2)ccc1-n1cnnn1`, the AC40 was 1.33 µM.
On to `COc1ccc(NS(=O)(=O)c2cccc(Cl)c2)cc1S(=O)(=O)N1CCCCC1`, for which the AC40 is 4.35 µM.
For `C[C@@H]1CN([C@H](C)CO)C(=O)c2cccc(NC(=O)C3CC3)c2O[C@H]1CN(C)Cc1ccc(C(F)(F)F)cc1`, the AC40 is 4.08 µM.
`COc1ccccc1C(=O)Nc1ccc2c(c1)C(=O)N(C)[C@H]1CC[C@@H](CC(=O)NCc3ccc(Cl)c(Cl)c3)O[C@H]1CO2`: the AC40 was 0.359 µM.
As for `COc1ccc2oc(C(=O)N3CCc4ccccc43)c(C)c2c1`, the figure is 5.37 µM; as for `Cc1ccc(NS(=O)(=O)c2ccc(-c3cnc(C4CC4)o3)cc2)cc1`, 9.25 µM; as for `COc1ccc(C(=O)N2C[C@@H]3[C@H](c4ccccc42)[C@H](CO)N3Cc2ccc3c(c2)OCO3)cc1`, 5.57 µM.
As for `C[C@@H]1CN([C@H](C)CO)C(=O)c2cccc(NC(=O)Nc3ccc(F)cc3)c2O[C@H]1CN(C)Cc1ccc(C(F)(F)F)cc1`, the AC40 was 1.51 µM.
`COc1ccc(Cl)cc1NS(=O)(=O)c1cc(Cl)ccc1OC`: the AC40 is 4.45 µM.
In the case of `Cc1ccc(C)c(S(=O)(=O)Nc2ccc(C(=O)N3CCC3)cc2)c1`, the AC40 was 2.82 µM.
Regarding `Cc1ccc(C(C)C)cc1S(=O)(=O)Nc1cccnc1`, the AC40 is 2.62 µM.
For `CCOc1ccc(S(=O)(=O)Nc2ccc3c(c2)OCO3)c2cccnc12` the value was below 0.26 µM; for `O=C(Cc1ccccc1)N1CC[C@@H]2[C@@H](CO)Nc3ccc(-c4cccc(F)c4)cc3[C@@H]21`, 7.15 µM; for `COc1ccccc1NS(=O)(=O)c1cc(NC(=O)c2cccs2)ccc1N1CCOCC1`, 0.895 µM.
For `COc1ccc(S(=O)(=O)NCc2ccccc2)cc1Br` the value was 5.07 µM; for `CCOC(=O)c1c(C)[nH]c(C)c1S(=O)(=O)NCCc1ccc(SC)cc1`, 0.686 µM; for `COc1ccc(NS(=O)(=O)c2cc3c(cc2C)N(C)CCO3)cc1`, 2.04 µM.
For `O=C1NC(=O)C(CCc2ccncc2)(Cc2cccc(Cl)c2Cl)C(=O)N1c1ccc(Br)cc1` (centres undefined), the AC40 is 2.98 µM.
With `COc1cc(OC)c(NS(=O)(=O)c2ccc(Cl)c(C(=O)OC(C)C(=O)N3CCCC3)c2)cc1Cl` (centres undefined), the AC40 is 8.08 µM.
For `CCN(Cc1ccccc1)C(=O)c1[nH]c2ccc(OC)cc2c1C` the value was 12 µM.
Turning to `COc1ccccc1N/C(=N/S(=O)(=O)c1ccc(C)cc1)c1ccccc1`, the AC40 is 9.99 µM.
`Cc1ccc(C)c(S(=O)(=O)Nc2ccc(C(=O)N3CCOCC3)cc2)c1`: the AC40 was 7.88 µM.
On to `O=S(Cc1ccccc1)CC(O)(c1ccc(Cl)cc1)c1ccc(Cl)cc1` (centres undefined), for which the AC40 is 10.5 µM.
Take `CCc1ccc(NC(=O)Cc2cn(C)c3ccccc23)cc1`: the AC40 was 28.8 µM.
As for `CC1CCCCN1C(=O)c1cc2nc(-c3ccccc3)cc(-c3ccccc3)n2n1` (centres undefined), the AC40 was 2.46 µM.
Take `CCOc1ccc(Br)cc1S(=O)(=O)Nc1ccc(Cl)c(S(=O)(=O)N(CC)c2ccccc2)c1`: the AC40 was 4.18 µM.
For `C[C@@H]1CN([C@H](C)CO)C(=O)c2cc(NC(=O)c3ccncc3)ccc2O[C@@H]1CN(C)S(=O)(=O)c1ccc(Cl)cc1` the value was 1.63 µM.
For `CCn1c(=O)c2cc(S(=O)(=O)NC3CCCCC3)ccc2n(CC)c1=O`, the AC40 was 3.31 µM.
On to `O=S(=O)(c1ccccc1F)N1CC[C@@H]2[C@@H](CO)Nc3ccc(-c4ccc(F)cc4)cc3[C@@H]21`, for which the AC40 was 5.7 µM.
As for `CC(C)c1ccc(NC(=S)NCc2cccs2)cc1`, the figure is 2.8 µM.
With `O=C1C(Oc2ccccc2)C(c2ccc3c(c2)OCO3)N1CCc1ccc(F)cc1` (centres undefined), the AC40 was 8.01 µM.
For `COc1ccc(OC)c(S(=O)(=O)Nc2cccc(-c3ccc4nncn4n3)c2)c1` the value was 2.4 µM; for `O=C(NC1CCCC1)C(c1ccccc1)N(Cc1ccc2c(c1)OCO2)C(=O)Cc1cccs1` (centres undefined), 6.85 µM; for `CN(c1cccc(NC(=O)c2ccc(Cl)c(S(=O)(=O)Nc3ccccc3)c2)c1)S(C)(=O)=O`, 2.18 µM.
Consider `Cc1cccc(NS(=O)(=O)c2ccc(C)c(C(=O)OCC(=O)Nc3cc(C)on3)c2)c1`, for which the AC40 is 4.46 µM.
`COc1cccc(NS(=O)(=O)c2c(C)cc(C)cc2C)c1`: the AC40 was 3.37 µM.
With `Cc1ccc(NS(=O)(=O)c2cc(Br)cnc2N)cc1C`, the AC40 was 2.36 µM.
Consider `CCC(=O)NC(=S)Nc1ccc(S(=O)(=O)NC2CCCCC2)cc1`, for which the AC40 is 1.1 µM.
As for `C[C@@H]1CN([C@H](C)CO)C(=O)Cc2cc(NC(=O)Nc3ccc(C(F)(F)F)cc3)ccc2O[C@@H]1CN(C)C(=O)Nc1cccc2ccccc12`, the figure is below 0.26 µM; as for `CC(=O)Nc1ccc2c(c1)C(=O)N(C)[C@H]1CC[C@@H](CC(=O)NCc3ccc(Cl)cc3)O[C@H]1CO2`, 11 µM.
As to `C[C@H](CO)N1C[C@H](C)[C@@H](CN(C)Cc2ccc(Cl)c(Cl)c2)Oc2c(NS(=O)(=O)c3ccccc3)cccc2C1=O`, the AC40 was 2.54 µM.
Regarding `CC(C)(C)NS(=O)(=O)c1ccc(OCC(=O)Nc2ccc3c(c2)OCCO3)cc1`, the AC40 was 14.7 µM.
On to `CSc1ccc(S(=O)(=O)NC2CCCCCC2)cc1`, for which the AC40 is 1.72 µM.
Take `C[C@@H]1CN([C@@H](C)CO)C(=O)Cc2cc(N(C)C)ccc2O[C@H]1CN(C)Cc1ccc(C(=O)Nc2ccccc2N)cc1`: the AC40 is 10.1 µM.
With `NC(=O)Cn1cc(/C=N\NS(=O)(=O)c2ccc(F)cc2)c2ccccc21`, the AC40 is 3.22 µM.
As for `Cc1ccc(S(=O)(=O)Nc2cc(C)c(O)c(S(=O)(=O)c3ccc(C)cc3)c2)cc1`, the figure is 11.2 µM; as for `C[C@H](CO)N1C[C@H](C)[C@@H](CN(C)Cc2ccc(C(F)(F)F)cc2)Oc2ccc(N(C)C)cc2C1=O`, 0.891 µM; as for `OC(c1cc(Cl)cc(Cl)c1)c1ncc(-c2ccccc2F)[nH]1` (centres undefined), 3.84 µM.
Take `O=C(NCCCn1ccnc1)c1cccc(S(=O)(=O)Nc2ccc(F)cc2)c1`: the AC40 was 3.77 µM.
In the case of `Cc1nc2cc(NS(=O)(=O)c3c(C)c(C)cc(C)c3C)ccc2s1`, the AC40 was below 0.26 µM.
Take `Cc1cccc(S(=O)(=O)NC2CCCCCCC2)c1`: the AC40 is 3.27 µM.
Regarding `CCN(CC)S(=O)(=O)c1ccc(NS(=O)(=O)c2ccc(C)c(C)c2)cc1`, the AC40 is 11.3 µM.
As for `COc1ccc(Cl)cc1S(=O)(=O)NCc1cccnc1`, the figure is 14.5 µM; as for `COc1ccc(CNS(=O)(=O)c2cc(-c3cc(C)no3)ccc2C(C)C)cc1`, 3.69 µM.
For `O=C(Nc1ccccc1)N1C[C@H]2[C@@H](c3ccccc31)[C@@H](CO)N2C(=O)c1ccccn1` the value was 33.7 µM; for `Cc1cccc(C(=O)Nc2cccc(S(=O)(=O)NCc3ccco3)c2)c1`, 3.29 µM.
With `O=C(Nc1ccccc1F)N1C[C@H]2[C@@H](c3ccccc31)[C@@H](CO)N2C(=O)c1ccc(F)cc1`, the AC40 is 1.25 µM.
With `Cc1ccc(S(=O)(=O)Nc2ccc3ncccc3c2)cc1`, the AC40 is 11.6 µM.
In the case of `Cc1ccc(C)c(S(=O)(=O)Nc2ccc(C(=O)N3CCCCC3)cc2)c1`, the AC40 is 3.58 µM.
Take `Cn1c(=O)n(C)c2cc(NS(=O)(=O)c3ccc(C(C)(C)C)cc3)ccc21`: the AC40 was 8.31 µM.
For `O=C(OCCN=C1NS(=O)(=O)c2ccccc21)c1ccccc1` the value was 9.59 µM; for `COc1ccc(S(=O)(=O)Nc2cc(Cl)ccc2OC)cc1`, 2.68 µM; for `O=S(=O)(c1ccccc1)N(CC(O)COc1ccccc1)c1ccccc1` (centres undefined), 18.9 µM.
As for `CCN(CC)S(=O)(=O)c1cc(C(=O)N(C)CC(=O)Nc2ccc(Cl)cc2)ccc1Cl`, the figure is 13.9 µM; as for `CC(C)C(=O)Nc1cc(S(=O)(=O)Nc2cccc(Cl)c2)ccc1Cl`, 1.52 µM.
With `Cc1ccccc1NC(=O)c1ccc(NS(=O)(=O)c2cc(C(C)(C)C)cc(C)c2C)cc1`, the AC40 was below 0.26 µM.
With `Cc1ccc(S(=O)(=O)Nc2ccc(C(=O)Nc3cc(C)on3)cc2)cc1`, the AC40 was 1.44 µM.
With `O=C(Cc1ccccc1)N1C[C@@H]2[C@H](c3ccccc31)[C@@H](CO)N2C(=O)Nc1ccc(F)cc1`, the AC40 was 2.61 µM.
`CC(=O)Nc1ccc(S(=O)(=O)Nc2ccc3c(c2)n(C)c(=O)n3C)c(C)c1`: the AC40 is 3.94 µM.
`COc1ccccc1NS(=O)(=O)c1cc(NC(=S)NCCN2CCOCC2)ccc1N1CCOCC1`: the AC40 is 1.71 µM.
For the compound `S=C(Nc1ccc(Cl)c(Cl)c1)NC1CCCCC1`, the AC40 was 1.37 µM.
For the compound `O=S(=O)(NCCc1ccccc1)c1cccc(S(=O)(=O)N2CCOCC2)c1`, the AC40 is 6 µM.
